Measured values reported in publication PMC4477702 (The Biochemical journal, 2015).

What was measured:
[1] = target: T1, Arabidopsis (At) COG3236 domain of RIBR (Arabidopsis thaliana, UniProt Q9STY4); test: HPLC-UV product formation; type: biochemical; conditions: pH 8.0, 22°C, 1 h
T1 sequence (Q9STY4 405-599 limits assumed): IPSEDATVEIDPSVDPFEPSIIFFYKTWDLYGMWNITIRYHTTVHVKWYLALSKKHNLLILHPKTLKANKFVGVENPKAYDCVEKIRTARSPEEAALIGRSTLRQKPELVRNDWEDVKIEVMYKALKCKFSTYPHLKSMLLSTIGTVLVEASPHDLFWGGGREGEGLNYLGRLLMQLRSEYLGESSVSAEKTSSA

[2] = target: T2, N. punctiforme (Np) COG3236 (Nostoc punctiforme, UniProt B2J4E5); test: HPLC-UV product formation; type: biochemical; conditions: pH 8.0, 22°C, 1 h
T2 sequence (B2J4E5 1-156): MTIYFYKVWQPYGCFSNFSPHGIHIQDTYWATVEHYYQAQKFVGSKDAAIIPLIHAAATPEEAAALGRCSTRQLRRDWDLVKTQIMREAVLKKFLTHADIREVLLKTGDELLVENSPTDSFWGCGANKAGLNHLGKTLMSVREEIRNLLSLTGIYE

Nc1c(N[C@@H]2O[C@H](COP(=O)(O)O)[C@@H](O)[C@H]2O)[nH]c(=O)[nH]c1=O (mixture of isomers) [compound 2, 5-amino-6-ribosylamino-2,4(1H,3H)-pyrimidinedione 5′-phosphate]
HPLC-UV product formation; diacetyl derivatization ([1]; 2.4 mM substrate, 0.1 μg protein): All five COG3236 proteins gave rise to a new HPLC peak when mixed with intermediate
HPLC-UV product formation ([2]; 2.4 mM substrate, 1 μg protein): All five COG3236 proteins gave rise to a new HPLC peak when mixed with intermediate

Nc1nc(N[C@@H]2O[C@H](COP(=O)(O)O)[C@@H](O)[C@H]2O)c(N)c(=O)[nH]1 (mixture of isomers) [compound 1, 2,5-diamino-6-ribosylamino-4(3H)-pyrimidinone 5′-phosphate]
HPLC-UV product formation; diacetyl derivatization ([1]; 3 mM substrate, 30 μg protein): All five COG3236 proteins gave rise to a new HPLC peak when mixed with intermediate
HPLC-UV product formation ([2]; 3 mM substrate, 30 μg protein): All five COG3236 proteins gave rise to a new HPLC peak when mixed with intermediate
